This is an account of results in patent US11685732B2, “MYST family histone acetyltransferase inhibitors” (Epizyme, Inc., priority 2017, dated 2023).

One assay concerns the target KAT-6A (Homo sapiens (Human), UniProt Q92794). As to the kind of experiment: KAT-6A biochemical inhibition assay (SAMDI mass spectrometry). The procedure, abridged: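 Enzyme (12.5 nM final) pre-incubated with serially diluted compounds (2% DMSO final) in 50 mM Tris pH 8.0 with Tween20, gelatin and 1 mM DTT. Reaction started with 1 μM peptide substrate and 1 μM acetyl-CoA, run 90 min at 25 °C, quenched with 0.5% formic acid, read by SAMDI-TOF mass spectrometry; IC50 derived.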

Another assay addresses KAT-8 (Homo sapiens (Human), UniProt Q9H7Z6). Description: KAT-8 biochemical inhibition assay (SAMDI mass spectrometry). The procedure, abridged:
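Compounds in 2% DMSO pre-incubated with 12.5 nM enzyme in 50 mM Tris pH 8.0 with Tween20, gelatin and 1 mM DTT. Then 1 μM peptide and 5 μM acetyl-CoA were added, 90 min at 25 °C; formic acid stop and SAMDI-TOF mass spectrometry for IC50.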

Another assay deals with KAT-5 (Homo sapiens (Human), UniProt Q92993). Description: KAT-5 biochemical inhibition assay (SAMDI mass spectrometry). The procedure, abridged: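 KAT-5 at 9 nM final was preincubated with serially diluted compound (2% DMSO) in 50 mM Tris pH 8.0 with 1 mM DTT. Reaction ran with 1 μM peptide substrate and 0.5 μM acetyl-CoA for 90 min at 25° C, was quenched with 0.5% formic acid, and was read by SAMDI-TOF mass spectrometry.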

A further assay deals with KAT-7 (Homo sapiens (Human), UniProt O95251). Description: KAT-7 biochemical inhibition assay (SAMDI mass spectrometry). In outline: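 KAT-7 (6 nM) was pre-incubated with serially diluted compound (2% DMSO) in Tris pH 8.0 with DTT. Reaction with 1 μM peptide and 2 μM acetyl-CoA ran 120 min at 25 °C and was stopped with 0.5% formic acid. Acetylation was read by SAMDI-TOF mass spectrometry to give IC50.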

A value given as a limit tells only on which side of the number the result lay.

Sequence of KAT-5 (Q92993 other isoform, or with tags, fused parts or gaps): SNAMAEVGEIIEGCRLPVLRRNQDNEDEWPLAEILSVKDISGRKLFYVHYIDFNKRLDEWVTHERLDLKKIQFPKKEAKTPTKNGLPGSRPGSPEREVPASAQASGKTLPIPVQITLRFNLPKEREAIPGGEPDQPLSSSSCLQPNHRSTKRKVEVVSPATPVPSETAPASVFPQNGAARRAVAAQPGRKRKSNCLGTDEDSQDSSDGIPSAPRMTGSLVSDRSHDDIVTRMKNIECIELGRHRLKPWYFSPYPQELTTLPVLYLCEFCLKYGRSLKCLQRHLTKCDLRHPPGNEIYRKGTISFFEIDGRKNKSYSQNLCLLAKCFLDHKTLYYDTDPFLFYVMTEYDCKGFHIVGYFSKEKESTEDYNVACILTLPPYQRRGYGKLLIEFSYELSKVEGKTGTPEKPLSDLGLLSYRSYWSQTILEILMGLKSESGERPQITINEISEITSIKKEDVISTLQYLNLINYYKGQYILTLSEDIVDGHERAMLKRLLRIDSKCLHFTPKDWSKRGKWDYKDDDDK
Sequence of KAT-8 (Q9H7Z6 other isoform, or with tags, fused parts or gaps): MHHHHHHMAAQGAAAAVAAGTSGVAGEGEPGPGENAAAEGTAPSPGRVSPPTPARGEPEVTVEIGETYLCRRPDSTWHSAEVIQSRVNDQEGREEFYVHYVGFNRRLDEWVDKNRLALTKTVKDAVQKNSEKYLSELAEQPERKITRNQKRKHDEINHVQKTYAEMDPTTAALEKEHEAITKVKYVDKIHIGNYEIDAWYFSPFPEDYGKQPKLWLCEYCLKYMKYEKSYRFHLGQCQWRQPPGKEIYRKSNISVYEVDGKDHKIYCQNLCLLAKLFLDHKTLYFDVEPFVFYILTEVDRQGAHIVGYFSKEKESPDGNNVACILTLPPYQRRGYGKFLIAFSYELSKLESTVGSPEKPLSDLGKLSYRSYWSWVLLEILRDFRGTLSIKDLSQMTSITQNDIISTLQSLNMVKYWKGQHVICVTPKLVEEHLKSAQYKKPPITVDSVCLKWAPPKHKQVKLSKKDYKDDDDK
Sequence of KAT-7 (O95251 other isoform, or with tags, fused parts or gaps): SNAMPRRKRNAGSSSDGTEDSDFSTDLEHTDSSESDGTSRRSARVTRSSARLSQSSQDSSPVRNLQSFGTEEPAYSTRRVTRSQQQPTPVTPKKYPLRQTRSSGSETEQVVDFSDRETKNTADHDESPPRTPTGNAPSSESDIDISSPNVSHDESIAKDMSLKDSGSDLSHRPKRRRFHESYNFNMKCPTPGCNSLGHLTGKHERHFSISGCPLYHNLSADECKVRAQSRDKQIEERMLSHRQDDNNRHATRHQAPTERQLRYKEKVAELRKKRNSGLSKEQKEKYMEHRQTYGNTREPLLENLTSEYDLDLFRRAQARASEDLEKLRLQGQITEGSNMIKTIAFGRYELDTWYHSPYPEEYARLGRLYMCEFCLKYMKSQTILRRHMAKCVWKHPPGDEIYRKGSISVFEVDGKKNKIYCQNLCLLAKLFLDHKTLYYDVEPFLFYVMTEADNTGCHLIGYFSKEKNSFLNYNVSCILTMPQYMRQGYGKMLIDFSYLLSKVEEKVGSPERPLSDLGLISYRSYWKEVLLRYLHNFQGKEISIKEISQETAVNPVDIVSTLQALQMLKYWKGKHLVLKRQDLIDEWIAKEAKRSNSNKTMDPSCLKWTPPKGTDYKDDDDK
Sequence of KAT-6A (Q92794 other isoform, or with tags, fused parts or gaps): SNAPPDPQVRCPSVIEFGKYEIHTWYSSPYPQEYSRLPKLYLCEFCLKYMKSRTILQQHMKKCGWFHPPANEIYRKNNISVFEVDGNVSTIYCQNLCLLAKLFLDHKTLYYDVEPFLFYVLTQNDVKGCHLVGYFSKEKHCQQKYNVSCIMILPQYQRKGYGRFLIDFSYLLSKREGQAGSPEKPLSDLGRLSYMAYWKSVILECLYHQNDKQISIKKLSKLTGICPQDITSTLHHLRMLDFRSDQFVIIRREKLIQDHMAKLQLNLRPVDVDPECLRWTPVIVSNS

As for `Cn1cnc(-c2cc(Cl)c(F)c(C(=O)NNS(=O)(=O)CCC3CCOCC3)c2)c1` [Compound I-244], the IC50 against KAT-6A is < 10 µM; on KAT-8, 10 to 50 µM; at KAT-5, < 10 µM; against KAT-7, < 10 µM.
As to `Cn1cnc(-c2cc(Cl)c(F)c(C(=O)NNS(=O)(=O)C[C@H]3CC[C@H](NC(=O)c4ccccn4)CC3)c2)c1` [Compound I-245], the IC50 at KAT-6A is < 10 µM; at KAT-8, 10 to 50 µM; against KAT-5, < 10 µM; against KAT-7 it was < 10 µM.
Regarding `Cn1cnc(-c2cc(Cl)c(F)c(C(=O)NNS(=O)(=O)C[C@H]3CC[C@@H](NC(=O)C4CCC4)CC3)c2)c1` [Compound I-246], the IC50 against KAT-6A was < 10 µM; on KAT-8, 10 to 50 µM; on KAT-5 it was < 10 µM; at KAT-7 it was < 10 µM.
For the compound `Cn1cnc(-c2cc(Cl)c(F)c(C(=O)NNS(=O)(=O)CC3CCCC(NC(=O)Cc4ccncc4)C3)c2)c1` (stereo not drawn) [Compound I-247], the IC50 is < 10 µM against KAT-6A, 10 to 50 µM against KAT-8, < 10 µM at KAT-5 and < 10 µM against KAT-7.
As for `Cn1cnc(-c2cc(Cl)c(F)c(C(=O)NNS(=O)(=O)C[C@H]3CC[C@@H](NS(C)(=O)=O)CC3)c2)c1` [Compound I-248], the IC50 at KAT-6A is < 10 µM; at KAT-8, 10 to 50 µM; against KAT-5, < 10 µM; against KAT-7, < 10 µM.
As to `Cn1cnc(-c2cc(Cl)c(F)c(C(=O)NNS(=O)(=O)C[C@H]3CC[C@H](NC(=O)Cc4ccccn4)CC3)c2)c1` [Compound I-249], the IC50 against KAT-6A was < 10 µM; against KAT-8, 10 to 50 µM; against KAT-5, < 10 µM; against KAT-7, < 10 µM.
For `Cn1cnc(-c2cc(Cl)c(F)c(C(=O)NNS(=O)(=O)CC3CCC4CCC3N4C(=O)OC(C)(C)C)c2)c1` (stereo not drawn) [Compound I-250], the IC50 at KAT-6A is 10 to 50 µM; against KAT-8, 10 to 50 µM; on KAT-5, < 10 µM; at KAT-7, < 10 µM.
Regarding `Cn1cnc(-c2cc(Cl)c(F)c(C(=O)NNS(=O)(=O)CC3CCC4CCC3N4)c2)c1` (stereo not drawn) [Compound I-251], the IC50 was 10 to 50 µM on KAT-6A, 10 to 50 µM against KAT-8, 10 to 50 µM on KAT-5 and < 10 µM against KAT-7.
In the case of `Cn1cnc(-c2cc(Cl)c(F)c(C(=O)NNS(=O)(=O)C[C@H]3CCC[C@@H](NC(=O)OC(C)(C)C)C3)c2)c1` [Compound I-252], the IC50 against KAT-6A was < 10 µM; on KAT-8 it was 10 to 50 µM; on KAT-5 it was < 10 µM; at KAT-7 it was < 10 µM.
For the compound `Cn1cnc(-c2cc(Cl)c(F)c(C(=O)NNS(=O)(=O)C[C@H]3CCC[C@@H](N)C3)c2)c1` [Compound I-253], the IC50 is 10 to 50 µM against KAT-6A, 10 to 50 µM against KAT-8, 10 to 50 µM on KAT-5 and < 10 µM at KAT-7.
Regarding `Cn1cnc(-c2cc(Cl)c(F)c(C(=O)NNS(=O)(=O)C[C@H]3CC[C@H](NC(=O)Cc4ccncc4)CC3)c2)c1` [Compound I-254], the IC50 at KAT-6A was < 10 µM; on KAT-8 it was 10 to 50 µM; on KAT-5 it was < 10 µM; at KAT-7, < 10 µM.
In the case of `CCC1CC(CS(=O)(=O)NNC(=O)c2cc(-c3cn(C)cn3)cc(Cl)c2F)CC1=O` (stereo not drawn) [Compound I-255], the IC50 is 10 to 50 µM against KAT-6A, 10 to 50 µM on KAT-8, 10 to 50 µM on KAT-5 and < 10 µM on KAT-7.
For the compound `CC(C1CCCCC1)S(=O)(=O)NNC(=O)c1cc(-c2cn(C)cn2)cc(Cl)c1F` (stereo not drawn) [Compound I-256], the IC50 is < 10 µM at KAT-6A, 10 to 50 µM against KAT-8, < 10 µM on KAT-5 and < 10 µM against KAT-7.
Turning to `Cn1cnc(-c2cc(Cl)c(F)c(C(=O)NNS(=O)(=O)c3cncs3)c2)c1` [Compound I-257], the IC50 at KAT-6A, at KAT-8, against KAT-5 and on KAT-7 was 10 to 50 µM each time.
In the case of `Cn1cnc(-c2cc(Cl)c(F)c(C(=O)NNS(=O)(=O)C[C@H]3CC[C@H](NC(=O)Cc4cccnc4)CC3)c2)c1` [Compound I-258], the IC50 was < 10 µM on KAT-6A, 10 to 50 µM against KAT-8, < 10 µM at KAT-5 and < 10 µM against KAT-7.
Turning to `CCNC(=O)N1[C@H]2CC[C@@H](CS(=O)(=O)NNC(=O)c3cc(-c4cn(C)cn4)cc(Cl)c3F)[C@@H]1CC2` [Compound I-260], the IC50 was < 10 µM at KAT-6A, 10 to 50 µM at KAT-8, < 10 µM against KAT-5 and < 10 µM on KAT-7.
For `Cn1cnc(-c2cc(Cl)c(F)c(C(=O)NNS(=O)(=O)C[C@H]3CC[C@H]4CC[C@@H]3N4)c2)c1` [Compound I-261], the IC50 against KAT-6A, on KAT-8, against KAT-5 and at KAT-7 was 10 to 50 µM in each case.
Consider `Cn1cnc(-c2cc(Cl)c(F)c(C(=O)NNS(=O)(=O)CC3CCC(F)(F)CC3)c2)c1` [Compound I-262], for which the IC50 against KAT-6A was < 10 µM; at KAT-8, 10 to 50 µM; against KAT-5 it was < 10 µM; at KAT-7, < 10 µM.
On to `Cn1cnc(-c2cc(Cl)c(F)c(C(=O)NNS(=O)(=O)CC3CCCc4ccccc43)c2)c1` (stereo not drawn) [Compound I-264], for which the IC50 is < 10 µM against KAT-6A, 10 to 50 µM against KAT-8, < 10 µM against KAT-5 and < 10 µM against KAT-7.
For `CCNC(=O)N1[C@H]2CC[C@H](CS(=O)(=O)NNC(=O)c3cc(-c4cn(C)cn4)cc(Cl)c3F)[C@@H]1CC2` [Compound I-265], the IC50 against KAT-6A was < 10 µM; at KAT-8, 10 to 50 µM; against KAT-5, < 10 µM; at KAT-7, < 10 µM.
As to `CCNC(=O)N[C@@H]1CCC[C@H](CS(=O)(=O)NNC(=O)c2cc(-c3cn(C)cn3)cc(Cl)c2F)C1` [Compound I-266], the IC50 against KAT-6A is < 10 µM; against KAT-8 it was 10 to 50 µM; against KAT-5 it was < 10 µM; against KAT-7, < 10 µM.
Consider `C[C@@H]1CN(C(=O)OC(C)(C)C)C[C@H]1CS(=O)(=O)NNC(=O)c1cc(-c2cn(C)cn2)cc(Cl)c1F` [Compound I-267], for which the IC50 is 10 to 50 µM at KAT-6A, 10 to 50 µM at KAT-8, < 10 µM against KAT-5 and < 10 µM on KAT-7.
With `CNC1CCCC(CS(=O)(=O)NNC(=O)c2cc(-c3cn(C)cn3)cc(Cl)c2F)C1` (stereo not drawn) [Compound I-280], the IC50 is 10 to 50 µM against KAT-6A, 10 to 50 µM on KAT-8, 10 to 50 µM on KAT-5 and < 10 µM on KAT-7.
In the case of `CN1CCN(C2CCCC(CS(=O)(=O)NNC(=O)c3cc(-c4cn(C)cn4)cc(Cl)c3F)C2)C1=O` (stereo not drawn) [Compound I-281], the IC50 against KAT-6A is < 10 µM; against KAT-8 it was 10 to 50 µM; at KAT-5 it was < 10 µM; against KAT-7, < 10 µM.
For `Cn1cnc(-c2cc(Cl)c(F)c(C(=O)NNS(=O)(=O)Cc3cccnc3)c2)c1` [Compound I-282], the IC50 against KAT-6A was 10 to 50 µM; against KAT-8, 10 to 50 µM; on KAT-5, < 10 µM; against KAT-7 it was < 10 µM.
For the compound `CC(=O)N1C[C@H](CS(=O)(=O)NNC(=O)c2cc(-c3cn(C)cn3)cc(Cl)c2F)[C@@H](C)C1` [Compound I-283], the IC50 was 10 to 50 µM on KAT-6A, 10 to 50 µM on KAT-8, 10 to 50 µM against KAT-5 and < 10 µM against KAT-7.
Turning to `Cn1cnc(-c2cc(Cl)c(F)c(C(=O)NNS(=O)(=O)c3nccn3C)c2)c1` [Compound I-284], the IC50 on KAT-6A is < 10 µM; on KAT-8 it was 10 to 50 µM; against KAT-5, 10 to 50 µM; against KAT-7 it was < 10 µM.
`Cn1cnc(-c2cc(Cl)c(F)c(C(=O)NNS(=O)(=O)CC3CCC(NC(=O)OC(C)(C)C)C3)c2)c1` (stereo not drawn) [Compound I-285]: the IC50 was < 10 µM at KAT-6A, 10 to 50 µM at KAT-8, < 10 µM at KAT-5 and < 10 µM against KAT-7.
Take `CCNC(=O)NC1CCC(CS(=O)(=O)NNC(=O)c2cc(-c3cn(C)cn3)cc(Cl)c2F)C1` (stereo not drawn) [Compound I-286]: the IC50 was < 10 µM on KAT-6A, 10 to 50 µM on KAT-8, < 10 µM at KAT-5 and < 10 µM against KAT-7.
For `CCNC(=O)N[C@H]1CCC[C@@H](CS(=O)(=O)NNC(=O)c2cc(-c3cn(C)cn3)cc(Cl)c2F)C1` [Compound I-287], the IC50 was < 10 µM on KAT-6A, 10 to 50 µM at KAT-8, < 10 µM against KAT-5 and < 10 µM against KAT-7.
As for `Cn1cnc(-c2cc(Cl)c(F)c(C(=O)NNS(=O)(=O)C[C@H]3CCC[C@H](OCc4ccccc4)C3)c2)c1` [Compound I-288], the IC50 was < 10 µM at KAT-6A, 10 to 50 µM against KAT-8, < 10 µM on KAT-5 and < 10 µM on KAT-7.
For `Cn1cnc(-c2cc(Cl)c(F)c(C(=O)NNS(=O)(=O)CC3CC4CC4C3)c2)c1` (stereo not drawn) [Compound I-289], the IC50 against KAT-6A is < 10 µM; against KAT-8, 10 to 50 µM; at KAT-5, < 10 µM; at KAT-7 it was < 10 µM.
In the case of `Cn1cnc(-c2cc(Cl)c(F)c(C(=O)NNS(=O)(=O)C[C@H]3CCC[C@@H](OCc4ccccc4)C3)c2)c1` [Compound I-290], the IC50 against KAT-6A was 10 to 50 µM; at KAT-8, 10 to 50 µM; at KAT-5, < 10 µM; on KAT-7, < 10 µM.
